# System: rats subjected to adrenalectomy (granuloma around implanted cotton wads)
# Experiment: granulom test (cotton-pellet test) on rats subjected to adrenalectomy: granuloma growth, thymus weight, body weight increase
# Format: in vivo, rat (Sprague-Dawley)
# Settings: for Dose required to obtain 50% inhibition of Granuloma growth: Table 3, adrenalectomized young male Sprague-Dawley rats, topical in implanted cotton wads, day 8; for Dose required to obtain 25% inhibition of Body weight Increase / Dose required to obtain 50% inhibition of Thymus weight: 11520 min
Structure (SMILES),Dose required to obtain 50% inhibition of Granuloma growth,"Therapeutic ratio body weight/granuloma (Table 4, ED25 body weight increase inhibition over ED50 granuloma formation inhibition)","Therapeutic ratio thymus/granuloma (Table 4, ED50 thymus weight inhibition divided by ED50 granuloma formation inhibition)","ED25 body weight increase inhibition (rat, in vivo) [µg/animal]","ED50 thymus weight inhibition (rat, in vivo) [µg/animal]","Dose required to obtain 25% inhibition of Body weight Increase (rat, in vivo)","Dose required to obtain 50% inhibition of Thymus weight (rat, in vivo)"
CC1O[C@@H]2C[C@H]3[C@@H]4CCC5=CC(=O)C=C[C@]5(C)[C@@]4(F)[C@@H](O)C[C@]3(C)[C@]2(C(=O)COC(=O)c2cc3ccccc3o2)O1 (stereo partly shown) [16 A],5 γ/animal,> 9.0,14.0,> 45,70,> 45 γ/animal,70 γ/animal
CC1O[C@@H]2C[C@H]3[C@@H]4CCC5=CC(=O)C=C[C@]5(C)[C@@]4(F)[C@@H](O)C[C@]3(C)[C@]2(C(=O)CO)O1 (stereo partly shown) [1 A+B],120 γ/animal,–,–,–,–,> 270 γ/animal,270 γ/animal
"CCCC1O[C@@H]2C[C@H]3[C@@H]4CCC5=CC(=O)C=C[C@]5(C)[C@@]4(F)[C@@H](O)C[C@]3(C)[C@]2(C(=O)CO)O1 (single isomer, unassigned) [3 B]",3 γ/animal,–,–,–,–,100 γ/animal,17 γ/animal

# From patent publication US3996359A, “Novel stereoisomeric component A of stereoisomeric mixtures of 2'-unsymmetrical 16,17-methylenedioxy steroid 21-acylates, compositions thereof, and method of treating therewith” (AB Bofors, priority 1972, dated 1976)
